Here are results for two compounds from US20210393553A1, “PHARMACEUTICAL COMBINATIONS FOR THE TREATMENT OF PAIN” (IMUNEKS FARMA ILAC SANAYI VE TICARET A.S., priority 2018, published 2021).

Where “and” joins values, the source holds several entries; their conditions need not be identical. Equal values may be shown once.

Experiment [1] deals with female Albino Wistar rats. Description: Hot plate test (heat induced pain model). The experiment is classed as in vivo.
The test system of the next experiment is rats. Description: Tail Flick test. The format is in vivo.

Consider `COc1cccc(C2(O)CCCCC2CN(C)C)c1` (stereo not drawn) [Tramadol], for which the “time of peak of activity in hot plate test” value in experiment [1] (rat, in vivo) turned out to be 30 min. The “hot plate test latency” value in experiment [1] (rat, in vivo, po) is 5.49 s and 6.90 s and 6.03 s and 6.19 s. The “tail flick results (tail flicking reaction time)” value in the experiment with rats (rat, in vivo, po) amounted to 5.81 s.
Regarding `CC(C(=O)O)c1ccc(-c2ccccc2)c(F)c1` (stereo not drawn) [FBP, Flurbiprofen], the “hot plate test latency” value in experiment [1] (15 min after oral gavage, hot plate 52.5° C., group average of 7 rats, cut-off 20 seconds, doses per Table 2) stood at 4.87 s; in experiment [1] (30 min after oral gavage, hot plate 52.5° C., group average of 7 rats, cut-off 20 seconds, doses per Table 2), 5.65 s; in experiment [1] (45 min after oral gavage, hot plate 52.5° C., group average of 7 rats, cut-off 20 seconds, doses per Table 2), 5.15 s; in experiment [1] (60 min after oral gavage, hot plate 52.5° C., group average of 7 rats, cut-off 20 seconds, doses per Table 2) it was 4.96 s. Further, the “analgesic effect in the hot plate test, in words” value in experiment [1] (comparison between groups / versus placebo) was “lowest analgesic effect compared to all the other groups except the placebo group”. Further, in the experiment on rats (1 hour after oral administration by gavage, same dosages as hot plate study, average of 3 measurements), the “tail flick results (tail flicking reaction time)” value came to 4.95 s.
